Laboratory results taken from US20130296311A1, “INHIBITORS OF HCV NS5A” (PRESIDIO PHARMACEUTICALS, INC., priority 2010, published 2013).
pEC50: −log10 of the molar value. Where two headings read alike, the source gives them in different places.

Tested on: HCV 1b_Huh-Luc/Neo-ET cell line persistently expressing a bicistronic genotype 1b replicon in Huh 7 cells
Experiment: HCV replicon assay (luciferase readout, 72 h)
Format: cell-based, HCV genotype 1b
Settings: Hepatitis C virus
Summary of the method: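 Huh 7 cells carrying a bicistronic genotype 1b luciferase/neo replicon received compound in triplicate the day after plating. After 72 h, replicon levels were read as Bright-Glo luciferase activity, expressed as % of control; EC50 was fitted with a four-parameter logistic and determined several times.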

[1] = Huh-7, 72 h, read-out: Inhibition of HCV genotype 1b
[2] = Huh-7, read-out: Inhibition of HCV genotype 1b
[3] = Huh-7, 72 h, read-out: Inhibition of HCV

## C=CC[C@H](NC(=O)OC)C(=O)N1CCC[C@H]1c1nc2ccc(C#Cc3ccc4c(c3)CCc3nc([C@@H]5CCCN5C(=O)[C@@H](NC(=O)OC)C(C)C)[nH]c3-4)cc2[nH]1 [Compound 1105]
[1]
  pEC50: > 9.00

## COC(=O)NC(C(=O)N1CCC[C@H]1c1nc2ccc(C#Cc3ccc4cc(-c5cnc([C@@H]6CCCN6C(=O)[C@H](NC(=O)OC6CCOCC6)c6ccccc6)[nH]5)ccc4n3)cc2[nH]1)C(C)C (some centres unmarked) [Compound 1291]
[2]
  pEC50: > 9.00

## COC(=O)N[C@@H](C(=O)N1CCC[C@H]1c1ncc(-c2ccc(C#Cc3ccc(-c4cnc([C@@H]5CCCN5C(=O)[C@H](NC(=O)N5CCOCC5)c5ccccc5)[nH]4)cc3)cc2)[nH]1)c1ccccc1 [Compound 224]
[1]
  pEC50: > 9.00

## O=C(N[C@@H](C(=O)N1CCC[C@H]1c1ncc(-c2ccc3nc(C#Cc4ccc5nc([C@@H]6CCCN6C(=O)[C@H](NC(=O)OC6CCOCC6)c6ccccc6)[nH]c5c4)ccc3c2)[nH]1)c1ccccc1)OC1CCOCC1 [Compound 1110]
[1]
  pEC50: > 9.00

## COC(=O)N[C@H](C(=O)N1CCC[C@H]1c1ncc(-c2ccc(C#Cc3ccc4nc([C@@H]5CCCN5C(=O)[C@@H](NC(=O)OC)C(C)C)[nH]c4c3)nc2)[nH]1)C(C)C [Compound 1033]
[1]
  pEC50: > 9.00

## COC(=O)N[C@H](C(=O)N[C@@H](C)c1ncc(-c2ccc(C#Cc3ccc(-c4cnc([C@@H]5CCCN5C(=O)[C@@H](NC(=O)OC)[C@@H](C)OC)[nH]4)cc3)cc2)[nH]1)[C@@H](C)OC [Compound 289]
[1]
  pEC50: > 9.00

## CN(C)[C@@H](C(=O)N1CCC[C@H]1c1ncc(-c2ccc(C#Cc3ccc(-c4cnc([C@@H]5CCCN5C(=O)[C@H](NC(=O)C5CC5)c5ccccc5)[nH]4)cc3)cc2)[nH]1)c1ccccc1 [Compound 215]
[1]
  pEC50: > 9.00

## O=C([C@@H](c1ccccc1)N1CCOCC1)N1CCC[C@H]1c1ncc(-c2ccc(C#Cc3ccc(-c4cnc([C@@H]5CCCN5C(=O)[C@@H](c5ccccc5)N5CCOCC5)[nH]4)cc3)cc2)[nH]1 [Compound 184]
[1]
  pEC50: > 9.00

## CCC(CC)[C@H](NC(=O)OC)C(=O)N1CCC[C@H]1c1ncc(-c2ccc(C#Cc3ccc4nc([C@@H]5CCCN5C(=O)[C@@H](NC(=O)OC)C(CC)CC)[nH]c4c3)cc2)[nH]1 [Compound 1030]
[1]
  pEC50: > 9.00

## CN(C)[C@@H](C(=O)N1CCC[C@H]1c1ncc(C#Cc2ccc(-c3cnc([C@@H]4CCCN4C(=O)[C@H](NC(=O)C4CC4)c4ccccc4)[nH]3)cc2)[nH]1)c1ccccc1 [Compound 133]
[1]
  pEC50: > 9.00

## COC(=O)N[C@H](C(=O)N1CCC[C@H]1c1ncc(-c2ccc(C#Cc3ccc4c(c3)CCc3nc([C@@H]5CCCN5C(=O)[C@@H](NC(=O)OC)C(C)C)[nH]c3-4)cc2)[nH]1)C(C)C [Compound 1094]
[1]
  pEC50: > 9.00

## COC(=O)N[C@@H](C(=O)N1CCC[C@H]1c1ncc(-c2ccc(C#Cc3ccc(-c4cnc([C@@H]5CCCN5C(=O)[C@H](NC(=O)OC)[C@H](C)OC)[nH]4)cc3)cc2)[nH]1)[C@H](C)OC [Compound 977]
[1]
  pEC50: 6.00 to 8.00

## COC(=O)N[C@H](C(=O)N1CCC[C@H]1c1ncc(-c2ccc(C#Cc3ccc(-c4cnc([C@@H]5CCCN5C(=O)[C@H](NC(=O)N(CCO)CCO)c5ccccc5)[nH]4)cc3)cc2)[nH]1)C(C)C [Compound 973]
[1]
  pEC50: > 9.00

## COC(=O)N[C@@H](C(=O)N1CCC[C@H]1c1ncc(-c2ccc(C#Cc3ccc(-c4cnc([C@@H]5CCCN5C(=O)[C@H](NC(=O)N5CCN(C)CC5)c5ccccc5)[nH]4)cc3)cc2)[nH]1)c1ccccc1 [Compound 240]
[1]
  pEC50: > 9.00

## COC(=O)N[C@@H](C(=O)N1CCC[C@H]1c1cc(-c2ccc(C#Cc3ccc(-c4cnc([C@@H]5CCCN5C(=O)[C@H](NC(=O)OC)c5ccccc5)[nH]4)cc3)cc2)n[nH]1)c1ccccc1 [Compound 219]
[1]
  pEC50: > 9.00

## COC(=O)N[C@H](C(=O)N1CCC[C@H]1c1nc2ccc(C#Cc3ccc4nc([C@@H]5CCCN5C(=O)[C@@H](NC(=O)OC)C(C)C)[nH]c4c3)cc2[nH]1)C(C)C [Compound 852]
[3]
  pEC50: > 9.00

## COC(=O)N[C@@H](C(=O)N1CCC[C@H]1c1ncc(-c2ccc(C#Cc3ccc(-c4cnc([C@@H]5CCCN5C(=O)[C@H](NC(=O)N5CCC(C)(O)CC5)c5ccccc5)[nH]4)cc3)cc2)[nH]1)c1ccccc1 [Compound 273]
[1]
  pEC50: > 9.00

## CC(C)[C@@H](NC(=O)C1CC1)C(=O)N1CCC[C@H]1c1ncc(-c2ccc(C#Cc3ccc(-c4cnc([C@@H]5CCCN5C(=O)[C@H](NC(=O)C5CC5)C(C)C)[nH]4)cc3)cc2)[nH]1 [Compound 155]
[1]
  pEC50: 8.00 to 9.00

## COC(=O)N[C@H](C(=O)N1CCC[C@H]1c1ncc(-c2ccc(C#Cc3ccc4nc([C@@H]5CCCN5C(=O)[C@@H](NC(=O)OC)C(C)C)[nH]c4c3)cc2)[nH]1)C(C)C [Compound 802]
[1]
  pEC50: > 9.00

## COC(=O)N[C@@H](C(=O)N1CCC[C@H]1c1ncc(-c2ccc(C#Cc3ccc(-c4cnc([C@@H]5CCCN5C(=O)[C@H](NC(=O)N5CCC[C@@H]5C)c5ccccc5)[nH]4)cc3)cc2)[nH]1)c1ccccc1 [Compound 261]
[1]
  pEC50: > 9.00

## COC(=O)N[C@H](C(=O)N1CCC[C@H]1c1ncc(-c2ccc(C#Cc3ccc4nc([C@@H]5CCCN5C(=O)[C@@H](NC(=O)OC)C(C)C)[nH]c4n3)cc2)[nH]1)C(C)C [Compound 1249]
[2]
  pEC50: > 9.00

## CN(C)C(=O)N[C@@H](C(=O)N1CCC[C@H]1c1ncc(-c2ccc(C#Cc3ccc(-c4cnc([C@@H]5CCCN5C(=O)[C@H](NC(=O)N(C)C)c5ccccc5)[nH]4)cc3)cc2)[nH]1)c1ccccc1 [Compound 161]
[1]
  pEC50: > 9.00

## COC(=O)N[C@H](C(=O)N1CCC[C@H]1c1ncc(-c2ccc(C#Cc3ccc(-c4cnc([C@@H]5CCCN5C(=O)[C@@H](NC(=O)OC)C(C)C)[nH]4)cc3C(=O)N3CCCC3)cc2)[nH]1)C(C)C [Compound 1208]
[2]
  pEC50: > 9.00

## COC(=O)N[C@H](C(=O)N[C@@H](C)c1ncc(-c2ccc(C#Cc3ccc4nc([C@@H]5CCCN5C(=O)[C@@H](NC(=O)OC)C5CCOCC5)[nH]c4c3)cc2)[nH]1)C1CCOCC1 [Compound 1227]
[2]
  pEC50: 8.00 to 9.00

## CNC(=O)N[C@@H](C(=O)N1CCC[C@H]1c1ncc(C#Cc2ccc(C#Cc3cnc([C@@H]4CCCN4C(=O)[C@H](NC(=O)NC)c4ccccc4)[nH]3)cc2)[nH]1)c1ccccc1 [Compound 307]
[1]
  pEC50: > 9.00

## CC[C@H](NC(=O)OC)C(=O)N1CCC[C@H]1c1nc2ccc(C#Cc3ccc(-c4cnc([C@@H]5CCCN5C(=O)[C@@H](NC(=O)OC)[C@@H](C)OC)[nH]4)cc3)cc2[nH]1 [Compound 1245]
[2]
  pEC50: > 9.00

## CC[C@H](C)C(NC(=O)OC)C(=O)N1CCC[C@H]1c1nc2ccc(C#Cc3ccc(-c4cnc([C@@H]5CCCN5C(=O)[C@@H](NC(=O)OC)[C@@H](C)OC)[nH]4)cc3)cc2[nH]1 (some centres unmarked) [Compound 1246]
[2]
  pEC50: > 9.00

## CCOC(=O)N[C@@H](C(=O)N1CCC[C@H]1c1ncc(-c2ccc(C#Cc3ccc(-c4cnc([C@@H]5CCCN5C(=O)[C@H](NC(=O)OCC)c5ccccc5)[nH]4)cc3)cc2)[nH]1)c1ccccc1 [Compound 244]
[1]
  pEC50: > 9.00

## COC(=O)N[C@H](C(=O)N1CCC[C@H]1c1ncc(-c2ccc(C#Cc3ccc4nc([C@@H]5CCCN5C(=O)[C@@H](NC(=O)OC)C5CCCOC5)[nH]c4c3)cc2)[nH]1)C(C)C (some centres unmarked) [Compound 1244]
[2]
  pEC50: > 9.00

## COC(=O)N[C@@H](C(=O)N1CCC[C@H]1c1ncc(-c2ccc(C#Cc3ccc(-c4cnc([C@@H]5CCCN5C(=O)C5CCN(C)CC5)[nH]4)cc3)cc2)[nH]1)c1ccccc1 [Compound 182]
[1]
  pEC50: > 9.00

## CS(=O)(=O)N[C@@H](C(=O)N1CCC[C@H]1c1ncc(-c2ccc(C#Cc3ccc(-c4cnc([C@@H]5CCCN5C(=O)[C@@H](c5ccccc5)N5CCCC5)[nH]4)cc3)cc2)[nH]1)c1ccccc1 [Compound 230]
[1]
  pEC50: > 9.00

## CN1CCC(C(=O)N[C@@H](C(=O)N2CCC[C@H]2c2cc(-c3ccc(C#Cc4ccc(-c5cnc([C@@H]6CCCN6C(=O)[C@H](NC(=O)C6CCN(C)CC6)c6ccccc6)[nH]5)cc4)cc3)n[nH]2)c2ccccc2)CC1 [Compound 223-1]
[1]
  pEC50: > 9.00

## COC(=O)N[C@H](C(=O)N1CCC[C@H]1c1ncc(-c2ccc(C#Cc3ccc(-c4cnc([C@@H]5CCCN5C(=O)[C@H](NC(=O)OC)c5ccccc5OC)[nH]4)cc3)cc2)[nH]1)[C@@H](C)OC [Compound 1211]
[2]
  pEC50: > 9.00

## COC(=O)N[C@@H](C(=O)N1CCC[C@H]1c1ncc(C#Cc2ccc3nc([C@@H]4CCCN4C(=O)[C@H](NC(=O)OC)c4ccccc4)[nH]c3c2)[nH]1)c1ccccc1 [Compound 700]
[1]
  pEC50: > 9.00

## COC(=O)N[C@H](C(=O)N1CCC[C@H]1c1ncc(C#Cc2ccc(-c3ccc(-c4cnc([C@@H]5CCCN5C(=O)[C@@H](NC(=O)OC)C(C)C)[nH]4)cc3)cc2)[nH]1)C(C)C [Compound 756]
[1]
  pEC50: > 9.00

## COC(=O)N[C@H](C(=O)N1CCC[C@H]1c1nc(C(F)(F)F)c(C#Cc2ccc3cc(-c4cnc([C@@H]5CCCN5C(=O)[C@@H](NC(=O)OC)[C@@H](C)OC)[nH]4)ccc3c2)[nH]1)C1CCCC1 [Compound 1263]
[2]
  pEC50: > 9.00

## O=C(N[C@@H](C(=O)N1CCC[C@H]1C(=O)NCc1ccc(C#Cc2cnc([C@@H]3CCCN3C(=O)[C@H](NC(=O)C3CC3)c3ccccc3)[nH]2)cc1)c1ccccc1)C1CC1 [Compound 121]
[1]
  pEC50: > 9.00

## COC(=O)N[C@@H](C(=O)N1CCC[C@H]1c1nc2ccc(C#Cc3ccc4nc([C@@H]5CCCN5C(=O)[C@H](NC(=O)OC)c5ccccc5)[nH]c4c3)cc2[nH]1)c1ccccc1 [Compound 851]
[3]
  pEC50: > 9.00

## COC(=O)N[C@H](C(=O)N1CCC[C@H]1c1ncc(C#Cc2ccc(-c3ccc4nc([C@@H]5CCCN5C(=O)[C@H](NC(=O)OC)c5ccccc5)[nH]c4c3)nc2)[nH]1)C(C)C [Compound 1087]
[1]
  pEC50: > 9.00

## CC[C@H](NC(=O)OC)C(=O)N1CCC[C@H]1c1ncc(-c2ccc(C#Cc3ccc4nc([C@@H]5CCCN5C(=O)[C@@H](NC(=O)OC)[C@@H](C)OC)[nH]c4c3)cc2)[nH]1 [Compound 1247]
[2]
  pEC50: > 9.00

## O=C(N[C@@H](C(=O)N1CCC[C@H]1c1ncc(C#Cc2ccc(C#Cc3cnc([C@@H]4CCCN4C(=O)[C@H](NC(=O)N4CCOCC4)c4ccccc4)[nH]3)cc2)[nH]1)c1ccccc1)N1CCOCC1 [Compound 309]
[1]
  pEC50: > 9.00
